Test results reported in ChEMBL document CHEMBL1201862, “PubChem BioAssay data set” (2004).
Calls of active or inactive are those of the source.

Experiments:
[1] = biological target: T1, ATP-dependent translocase ABCB1 (Homo sapiens, UniProt P08183); assay: P-gp JC-1 efflux blockade concentration-response – Jurkat-DNR cells, flow cytometry, set 2, dose response (AID 504569); format: functional; conditions: read-out: EC50_MICROM_;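 also: potency of pump inhibitors that raise cellular JC-1 green fluorescence up to the nicardipine level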
[2] = biological target: T1, ATP-dependent translocase ABCB1; assay: inhibition of BCRP-mediated JC-1 efflux – Ig-MXP3 cells, flow cytometry, set 2, dose response (AID 504566); format: functional; conditions: read-out: EC50_MICROM_;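 also: flow cytometry median green fluorescence of retained JC-1 dye; potency of efflux pump inhibition measured as rising substrate retention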
H9c2 = assay: cells; format: functional, cell-based; conditions: Rattus norvegicus, H9c2, Myocardium;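 also: confirmatory concentration-response retest of ultra-high-throughput screening hits for modulation of myocardial damage; cell death induced by hydrogen peroxide oxidative stress; compound pretreatment for 60 min then peroxide exposure for 2 h; potency is for protecting the cells against peroxide damage rather than for killing them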
[3] = bead-based luminescence quenchers, dual-tagged ARNT – biochemical, AlphaScreen, cherry-pick, artefact control for ARNT-TACC3 interaction inhibitor project, dose response (AID 651705); format: functional;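 also: AlphaScreen bead proximity signal that flags compounds interfering with the detection technology; potency reflects signal decrease which marks the compound as an assay artifact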
[4] = biological target: T2, Corticotropin-releasing factor receptor 2/Corticotropin-releasing factor-binding protein (Homo sapiens, UniProt P24387+Q13324); assay: Dose Response confirmation of uHTS hits for small molecule antagonists of the CRF-binding protein and CRF-R2 receptor complex.; format: functional; conditions: read-out: IC50_Mean
T2 sequence (Q13324 whole entry): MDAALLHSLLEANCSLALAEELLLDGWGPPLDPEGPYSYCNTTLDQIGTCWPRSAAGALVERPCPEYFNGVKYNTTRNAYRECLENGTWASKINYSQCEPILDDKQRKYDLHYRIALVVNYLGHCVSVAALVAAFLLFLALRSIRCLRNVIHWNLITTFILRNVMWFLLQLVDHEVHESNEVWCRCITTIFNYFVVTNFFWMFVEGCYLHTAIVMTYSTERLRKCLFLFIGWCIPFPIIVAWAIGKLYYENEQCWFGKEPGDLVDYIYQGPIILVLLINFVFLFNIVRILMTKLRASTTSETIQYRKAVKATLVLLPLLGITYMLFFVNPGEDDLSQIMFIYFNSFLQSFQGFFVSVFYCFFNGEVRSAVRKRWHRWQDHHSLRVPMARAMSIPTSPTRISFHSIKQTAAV
T2 sequence (P24387 whole entry): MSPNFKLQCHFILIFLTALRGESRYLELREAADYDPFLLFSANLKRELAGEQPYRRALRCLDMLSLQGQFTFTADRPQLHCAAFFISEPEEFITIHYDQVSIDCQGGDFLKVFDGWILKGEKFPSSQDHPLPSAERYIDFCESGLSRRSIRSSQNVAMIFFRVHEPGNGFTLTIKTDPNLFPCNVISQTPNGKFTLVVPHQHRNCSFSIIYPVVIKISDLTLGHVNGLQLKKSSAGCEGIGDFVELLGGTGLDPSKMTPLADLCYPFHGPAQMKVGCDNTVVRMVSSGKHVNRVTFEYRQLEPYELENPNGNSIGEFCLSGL

[5] = biological target: T2, Corticotropin-releasing factor receptor 2/Corticotropin-releasing factor-binding protein; assay: activators of CRF receptor 2 with binding protein – uHTS hits, confirmation (AID 602473); format: functional; conditions: read-out: EC50_Mean
[6] = blockers of CRF-binding protein–CRF-R2 complex – cell-based, uHTS hits, 384-well, dose response (AID 651639); format: functional, Homo sapiens; conditions: read-out: IC50_Mean
Interleukin-8 [7] = biological target: T3, Interleukin-8 (Homo sapiens, UniProt P10145); assay: Dose Response confirmation of uHTS small molecule hits for cystic fibrosis induced NFkb Inhibitors in a PAF-induced IL8 counterscreen.; format: functional; conditions: read-out: IC50_Mean
T3 sequence (P10145 whole entry): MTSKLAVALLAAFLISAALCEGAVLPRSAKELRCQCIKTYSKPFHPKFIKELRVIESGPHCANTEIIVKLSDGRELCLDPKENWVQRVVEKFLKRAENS

[8] = biological target: T4, Microphthalmia-associated transcription factor (Homo sapiens, UniProt O75030); assay: reducers of TRPM1 reporter luminescence, concentration series – cell-based, SK-MEL-5, cherry-picked, set 3, MITF inhibitor project, dose response (AID 493073); format: functional;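 also: SK-MEL-5 melanoma cells with luciferase driven by the MITF target TRPM1 promoter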
T4 sequence (O75030 whole entry): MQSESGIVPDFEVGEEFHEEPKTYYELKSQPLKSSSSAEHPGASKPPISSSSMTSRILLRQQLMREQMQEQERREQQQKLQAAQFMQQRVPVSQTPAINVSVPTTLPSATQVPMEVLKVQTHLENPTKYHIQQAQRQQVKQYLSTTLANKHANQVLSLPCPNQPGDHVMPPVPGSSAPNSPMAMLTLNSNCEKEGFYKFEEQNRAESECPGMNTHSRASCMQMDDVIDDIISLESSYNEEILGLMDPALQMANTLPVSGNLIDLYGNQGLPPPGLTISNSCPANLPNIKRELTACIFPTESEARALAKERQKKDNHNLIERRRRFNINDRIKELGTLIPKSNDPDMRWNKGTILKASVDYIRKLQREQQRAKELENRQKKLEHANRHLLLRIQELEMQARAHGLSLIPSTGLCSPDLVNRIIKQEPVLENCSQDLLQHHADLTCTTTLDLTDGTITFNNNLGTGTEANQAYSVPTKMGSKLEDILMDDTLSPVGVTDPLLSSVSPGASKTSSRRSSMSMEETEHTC

[9] = blockers of HIV-1 envelope-mediated cell-cell fusion – cherry-pick, dose response (AID 652057); format: functional, cell-based
[10] = off-target signal loss in HeLa-CEM21 co-culture – HeLa F-luc CTL cells, cherry-picked, counter-screen for HIV-1 Env fusion inhibitor project, dose response (AID 652040); format: functional, cell-based;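 also: potency for signal decrease marking cytotoxic or nonspecific inhibition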
[11] = viability loss in CEM21 cells – cell-based, CellTiter-Glo luminescence, cherry-picked, cytotoxicity control for viral fusion inhibitor project, dose response (AID 652042); format: functional;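 also: potency for signal decrease meaning cytotoxicity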
[12] = biological target: Sphingosine 1-phosphate receptor 2 (Homo sapiens, UniProt O95136); assay: Dose Response Cell Based Assay for Antagonists of the S1P2 Receptor. [Related pubchem assays: 856, 736 ]; format: functional
Interleukin-8 [13] = biological target: T3, Interleukin-8; assay: Dose Response confirmation of uHTS small molecule hits for cystic fibrosis induced NFkb Inhibitors in a TNFa-induced IL8 counterscreen.; format: functional; conditions: read-out: IC50_Mean
[14] = blockers of HIV-1 ZM109 envelope-driven cell-cell fusion – HeLa effector, CEM target cells, luciferase, cherry-pick, dose response (AID 652058); format: functional, cell-based;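 also: luciferase signal from HIV-1 Env mediated cell-cell fusion of effector and target cells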
Cytochrome P450 3A4 = Cytochrome P450 3A4 (Homo sapiens, UniProt P08684);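 also: CYP3A4 tested as one member of a cytochrome P450 panel screen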
[15] = biological target: Dual specificity tyrosine-phosphorylation-regulated kinase 1A (Rattus norvegicus, UniProt Q63470); format: biochemical, Homo sapiens
[16] = biological target: T5, Heat shock factor protein 1 (Mus musculus, UniProt P38532); assay: decrease of HSF1-responsive luciferase luminescence – cell-based, NIH3T3, dose retest, confirmation (AID 2382); format: functional;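 also: NIH3T3 fibroblasts with HSF1-driven luciferase reporter stressed by proteasome inhibitor MG132; luminescence from HSF1-driven luciferase expression after 8 hours of MG132 stress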
T5 sequence (P38532 whole entry): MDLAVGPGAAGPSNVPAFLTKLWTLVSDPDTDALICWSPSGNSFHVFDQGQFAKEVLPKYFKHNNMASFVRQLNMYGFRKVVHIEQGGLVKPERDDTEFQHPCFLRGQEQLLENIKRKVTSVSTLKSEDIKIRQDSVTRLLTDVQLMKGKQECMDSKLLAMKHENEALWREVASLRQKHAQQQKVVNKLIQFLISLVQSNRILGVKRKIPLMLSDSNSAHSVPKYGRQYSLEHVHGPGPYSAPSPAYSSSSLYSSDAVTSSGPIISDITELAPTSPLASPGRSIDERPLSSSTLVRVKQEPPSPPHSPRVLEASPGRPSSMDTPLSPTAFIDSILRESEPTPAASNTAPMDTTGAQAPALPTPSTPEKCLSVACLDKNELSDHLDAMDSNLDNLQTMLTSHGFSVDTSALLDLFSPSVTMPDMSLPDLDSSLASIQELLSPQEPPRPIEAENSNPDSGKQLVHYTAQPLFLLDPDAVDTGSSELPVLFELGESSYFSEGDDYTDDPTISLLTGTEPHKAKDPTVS

[17] = HIV-1 AD8 envelope cell-cell fusion blockers – cherry-pick, dose response (AID 652062); format: functional, cell-based;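 also: luciferase signal from cell-cell fusion driven by HIV-1 clade B AD8 Env; potency is for inhibitors of fusion seen as a drop in luminescence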
[18] = biological target: Hepatocyte nuclear factor 4-alpha (Homo sapiens, UniProt P41235); format: functional, cell-based;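 also: biochemical luminescence-based dose-response counterscreen measuring inhibition of HNF4 dimerization, run alongside a screen for blockers of ABHD5–perilipin-5 interaction; split luciferase complementation of HNF4 fusion proteins in cell lysate measuring dimerization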
[19] = biological target: T5, Heat shock factor protein 1; assay: enhancement of HSF1-driven luciferase signal – cell-based, NIH3T3, luminescence, dose retest, confirmation (AID 435004); format: functional;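 also: stress induced by proteasome inhibitor MG132 added 30 min after compound; luciferase reporter driven by HSF1 response element in NIH3T3 cells; actives raise luminescence as potentiators of the MG132 stress response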
Protein RecA = biological target: T6, Protein RecA (Mycobacterium tuberculosis, UniProt P9WHJ3); assay: Fluorescence Cell-Free Homogeneous Dose Retest to Identify Inhibitors of RecA-Intein Splicing Activity. [Related pubchem assays (depositor defined):AID2097, AID2223, AID489010, AID492950]; format: functional
T6 sequence (P9WHJ3 whole entry): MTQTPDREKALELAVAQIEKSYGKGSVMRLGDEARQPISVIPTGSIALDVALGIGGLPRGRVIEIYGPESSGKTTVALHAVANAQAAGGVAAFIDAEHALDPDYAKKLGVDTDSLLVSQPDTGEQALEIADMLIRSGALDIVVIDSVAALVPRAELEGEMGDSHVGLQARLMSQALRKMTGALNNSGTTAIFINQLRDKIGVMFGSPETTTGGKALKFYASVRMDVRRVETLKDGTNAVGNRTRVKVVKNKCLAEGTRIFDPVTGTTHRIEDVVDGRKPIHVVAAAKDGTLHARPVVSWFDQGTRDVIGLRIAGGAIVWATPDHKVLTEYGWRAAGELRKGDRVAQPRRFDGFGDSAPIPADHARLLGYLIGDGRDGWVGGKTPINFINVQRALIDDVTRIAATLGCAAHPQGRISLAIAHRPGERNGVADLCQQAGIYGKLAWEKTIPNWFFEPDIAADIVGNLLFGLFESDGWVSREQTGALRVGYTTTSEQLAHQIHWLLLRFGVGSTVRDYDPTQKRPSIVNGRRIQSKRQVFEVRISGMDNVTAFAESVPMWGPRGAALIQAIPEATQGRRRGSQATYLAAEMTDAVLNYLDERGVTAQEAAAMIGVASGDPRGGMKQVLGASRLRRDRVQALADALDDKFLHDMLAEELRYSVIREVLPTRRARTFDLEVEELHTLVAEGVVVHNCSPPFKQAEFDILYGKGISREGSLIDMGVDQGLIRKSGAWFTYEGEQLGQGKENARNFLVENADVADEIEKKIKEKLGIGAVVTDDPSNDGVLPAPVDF

[20] = biological target: T7, Replicative DNA helicase DnaB (Mycobacterium tuberculosis, UniProt P9WMR3); assay: DnaB intein splicing inhibitors, dose response, biochemical, cell-free fluorescence (AID 449749); format: functional
T7 sequence (P9WMR3 whole entry): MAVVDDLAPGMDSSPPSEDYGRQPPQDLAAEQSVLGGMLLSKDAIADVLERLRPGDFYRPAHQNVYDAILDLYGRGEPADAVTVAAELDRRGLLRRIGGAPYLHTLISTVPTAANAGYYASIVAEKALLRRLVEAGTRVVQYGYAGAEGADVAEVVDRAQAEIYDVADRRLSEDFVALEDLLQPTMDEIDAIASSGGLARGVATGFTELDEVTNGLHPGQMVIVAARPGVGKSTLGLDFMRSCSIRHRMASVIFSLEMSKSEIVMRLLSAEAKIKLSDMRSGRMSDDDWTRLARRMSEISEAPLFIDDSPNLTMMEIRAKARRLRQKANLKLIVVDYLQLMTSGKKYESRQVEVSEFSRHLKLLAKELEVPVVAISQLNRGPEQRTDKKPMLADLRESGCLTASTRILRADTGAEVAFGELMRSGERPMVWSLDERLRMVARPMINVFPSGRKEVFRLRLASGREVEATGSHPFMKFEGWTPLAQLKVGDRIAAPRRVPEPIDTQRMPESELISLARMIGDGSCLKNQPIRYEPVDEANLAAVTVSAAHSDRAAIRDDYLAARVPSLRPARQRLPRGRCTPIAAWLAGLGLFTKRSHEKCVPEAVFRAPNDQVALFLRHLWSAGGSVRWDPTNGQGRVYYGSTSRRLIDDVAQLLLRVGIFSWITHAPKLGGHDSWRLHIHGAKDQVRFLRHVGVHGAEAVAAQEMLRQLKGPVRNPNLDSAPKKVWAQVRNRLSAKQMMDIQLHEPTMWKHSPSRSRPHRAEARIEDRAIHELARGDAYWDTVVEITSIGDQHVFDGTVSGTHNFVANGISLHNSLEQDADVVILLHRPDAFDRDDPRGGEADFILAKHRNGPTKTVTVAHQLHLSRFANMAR

[21] = biological target: Mitochondrial peptide methionine sulfoxide reductase (Bos taurus, UniProt P54149); format: functional;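 also: absorbance read-out, biochemical high-throughput dose-response screen for MsrA inhibitors, confirmatory; recombinant bovine MsrA coupled to E. coli TrxB with NADPH and selenocystamine; potency is for inhibitors of MsrA activity on DMSO substrate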
[22] = biological target: Photoreceptor-specific nuclear receptor (Homo sapiens, UniProt Q9Y5X4); format: functional, cell-based;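 also: CHO-S cells with Gal4-NCOR and VP16-NR2E3 two-hybrid luciferase reporter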
Photoreceptor-specific nuclear receptor, sequence (Q9Y5X4 whole entry, the tested form may be a part): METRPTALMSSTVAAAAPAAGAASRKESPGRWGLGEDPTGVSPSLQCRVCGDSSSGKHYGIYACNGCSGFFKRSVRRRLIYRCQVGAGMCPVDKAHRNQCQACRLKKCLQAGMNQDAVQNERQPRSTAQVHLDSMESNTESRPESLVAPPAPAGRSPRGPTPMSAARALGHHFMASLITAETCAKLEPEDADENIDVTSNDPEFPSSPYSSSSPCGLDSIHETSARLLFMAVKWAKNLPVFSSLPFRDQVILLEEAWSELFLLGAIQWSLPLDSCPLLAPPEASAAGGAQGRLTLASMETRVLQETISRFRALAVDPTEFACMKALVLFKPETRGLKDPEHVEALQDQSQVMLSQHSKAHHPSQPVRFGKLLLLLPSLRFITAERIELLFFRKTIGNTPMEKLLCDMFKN

T1 sequence (P08183 whole entry): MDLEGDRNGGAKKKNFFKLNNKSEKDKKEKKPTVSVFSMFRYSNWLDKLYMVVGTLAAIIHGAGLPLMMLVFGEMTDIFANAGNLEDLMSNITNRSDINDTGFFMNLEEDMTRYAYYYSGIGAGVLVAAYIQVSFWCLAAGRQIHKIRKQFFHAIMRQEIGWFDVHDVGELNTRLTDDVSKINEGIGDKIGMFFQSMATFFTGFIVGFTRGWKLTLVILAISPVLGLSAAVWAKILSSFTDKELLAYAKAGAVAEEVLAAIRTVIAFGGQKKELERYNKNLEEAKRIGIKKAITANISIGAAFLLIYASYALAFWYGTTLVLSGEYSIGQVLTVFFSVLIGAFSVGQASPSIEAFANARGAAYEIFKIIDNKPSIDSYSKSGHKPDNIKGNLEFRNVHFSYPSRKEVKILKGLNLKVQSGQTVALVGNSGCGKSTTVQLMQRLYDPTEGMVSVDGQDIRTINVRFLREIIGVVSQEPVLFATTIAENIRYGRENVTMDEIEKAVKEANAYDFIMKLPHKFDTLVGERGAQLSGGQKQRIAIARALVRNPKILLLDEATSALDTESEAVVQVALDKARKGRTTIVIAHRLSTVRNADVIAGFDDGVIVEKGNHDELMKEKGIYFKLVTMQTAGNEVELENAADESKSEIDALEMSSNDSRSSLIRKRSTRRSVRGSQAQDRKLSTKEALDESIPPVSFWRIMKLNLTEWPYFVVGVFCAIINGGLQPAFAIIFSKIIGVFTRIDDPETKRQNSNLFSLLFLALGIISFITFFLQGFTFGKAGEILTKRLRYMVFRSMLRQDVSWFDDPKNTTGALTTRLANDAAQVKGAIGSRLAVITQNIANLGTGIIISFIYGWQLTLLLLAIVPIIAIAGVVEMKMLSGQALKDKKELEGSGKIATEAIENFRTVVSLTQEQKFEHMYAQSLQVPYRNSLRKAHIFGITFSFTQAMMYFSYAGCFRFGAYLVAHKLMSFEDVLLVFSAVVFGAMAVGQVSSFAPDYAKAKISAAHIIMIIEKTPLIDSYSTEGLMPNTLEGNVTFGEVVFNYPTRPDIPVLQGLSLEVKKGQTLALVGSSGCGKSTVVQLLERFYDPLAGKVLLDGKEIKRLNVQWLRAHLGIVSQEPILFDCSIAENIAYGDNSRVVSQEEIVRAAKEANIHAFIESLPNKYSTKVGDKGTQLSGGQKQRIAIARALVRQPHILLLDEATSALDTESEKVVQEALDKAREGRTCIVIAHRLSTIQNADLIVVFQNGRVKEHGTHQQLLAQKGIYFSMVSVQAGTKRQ
Cytochrome P450 3A4, sequence (P08684 whole entry): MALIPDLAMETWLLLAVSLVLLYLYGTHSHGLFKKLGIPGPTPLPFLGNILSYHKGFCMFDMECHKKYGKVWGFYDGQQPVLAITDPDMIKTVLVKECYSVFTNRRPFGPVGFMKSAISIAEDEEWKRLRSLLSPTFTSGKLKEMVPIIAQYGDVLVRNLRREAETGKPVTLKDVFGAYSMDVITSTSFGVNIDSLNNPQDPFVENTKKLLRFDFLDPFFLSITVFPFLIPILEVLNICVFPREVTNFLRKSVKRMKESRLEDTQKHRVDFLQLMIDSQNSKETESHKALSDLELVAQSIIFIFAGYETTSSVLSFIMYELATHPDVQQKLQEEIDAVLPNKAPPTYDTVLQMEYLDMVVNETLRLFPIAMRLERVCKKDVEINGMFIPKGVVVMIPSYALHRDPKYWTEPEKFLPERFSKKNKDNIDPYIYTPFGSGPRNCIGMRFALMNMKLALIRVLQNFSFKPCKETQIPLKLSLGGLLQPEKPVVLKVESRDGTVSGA
Mitochondrial peptide methionine sulfoxide reductase, sequence (P54149 whole entry, the tested form may be a part): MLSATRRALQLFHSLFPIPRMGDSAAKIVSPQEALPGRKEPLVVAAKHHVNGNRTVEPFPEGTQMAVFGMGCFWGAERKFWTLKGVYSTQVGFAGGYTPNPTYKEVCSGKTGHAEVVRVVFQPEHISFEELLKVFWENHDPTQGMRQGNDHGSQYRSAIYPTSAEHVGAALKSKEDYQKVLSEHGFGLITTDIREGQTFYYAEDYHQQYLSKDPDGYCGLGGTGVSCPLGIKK
Hepatocyte nuclear factor 4-alpha, sequence (P41235 whole entry, the tested form may be a part): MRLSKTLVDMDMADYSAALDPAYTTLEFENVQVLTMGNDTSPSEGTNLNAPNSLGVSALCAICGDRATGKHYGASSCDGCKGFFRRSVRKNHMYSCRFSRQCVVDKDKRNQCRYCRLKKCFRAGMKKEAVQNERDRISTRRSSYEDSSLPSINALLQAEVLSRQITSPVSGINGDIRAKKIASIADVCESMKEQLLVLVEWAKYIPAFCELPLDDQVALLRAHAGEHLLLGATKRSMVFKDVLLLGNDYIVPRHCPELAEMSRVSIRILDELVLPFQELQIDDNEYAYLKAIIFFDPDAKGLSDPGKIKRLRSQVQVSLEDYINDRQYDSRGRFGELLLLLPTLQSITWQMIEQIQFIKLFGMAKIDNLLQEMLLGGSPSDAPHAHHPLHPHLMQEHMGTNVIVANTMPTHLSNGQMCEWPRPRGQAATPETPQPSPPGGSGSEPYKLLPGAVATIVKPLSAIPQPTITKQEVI
Sphingosine 1-phosphate receptor 2, sequence (O95136 whole entry): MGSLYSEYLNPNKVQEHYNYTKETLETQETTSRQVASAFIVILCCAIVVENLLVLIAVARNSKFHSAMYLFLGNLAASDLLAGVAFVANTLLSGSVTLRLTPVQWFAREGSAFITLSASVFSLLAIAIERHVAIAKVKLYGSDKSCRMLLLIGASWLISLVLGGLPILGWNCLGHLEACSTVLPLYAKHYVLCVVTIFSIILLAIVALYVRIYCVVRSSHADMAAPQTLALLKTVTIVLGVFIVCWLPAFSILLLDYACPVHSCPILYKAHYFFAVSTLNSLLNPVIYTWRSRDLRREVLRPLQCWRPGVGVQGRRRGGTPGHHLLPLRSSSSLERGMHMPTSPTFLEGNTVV

COc1ccc(-c2cc3nc(-c4ccccc4)cc(N4CCN(C(C)=O)CC4)n3n2)cc1
EC50 [1]: 1.94 µM (active) | EC50 [2]: 1.47 µM (active) | IC50 (H9c2): > 79 µM (inactive)

O=C(CSc1cccc2cccnc12)Nc1ccccc1F
AC50 [3]: 90.5 µM (active)

CN(CCOc1ccc(Cl)cc1)C(=O)C1CCN(C(=O)c2ccc(Cl)cc2)CC1
IC50 [4]: < 0.368 µM (active) | EC50 [5]: > 53 µM (inactive) | IC50 [6]: > 20 µM (inactive)

COc1cccc(-c2nnc3n2N=C(C(C)(C)C)CS3)c1
IC50 (Interleukin-8 [7]): 4.14 µM (active) | AC50 [8]: 4.82 µM (active) | AC50 [9]: 1.25 µM (active) | AC50 [10]: 2.95 µM (active) | AC50 [11]: 8.58 µM (active) | IC50 [12]: 3.31 µM (active) | IC50 (Interleukin-8 [13]): 42.4 µM (inactive) | AC50 [14]: 0.976 µM (active) | AC50 (Cytochrome P450 3A4): 25.1 µM (inconclusive) | AC50 [15]: 8.72 µM (active) | EC50 [16]: 2.96 µM (active) | AC50 [17]: 2.3 µM (active)

N#Cc1ncc(Cc2ccccc2)nc1C#N
IC50 [18]: 18.1 µM (inactive) | EC50 [19]: 18.1 µM (active) | EC50 (Protein RecA): 1.71 µM (active) | AC50 [20]: 2.42 µM (active)

O=[N+]([O-])c1cccc(/C=N/n2c(S)nnc2C2CCCCC2)c1
IC50 [21]: 155 µM (inactive)

O=C(O)CC1(CC(=O)Nc2cc(C(F)(F)F)cc(C(F)(F)F)c2)CCCCC1
IC50 [22]: 2.23 µM (active)
